Results reported in patent publication US7078400B2, “20-HETE synthase inhibitor” (Taisho Pharmaceutical Co., Ltd., priority 1999, dated 2006).

How the values were obtained:
[1] = test system: 20-HETE synthase originated from rat kidney microsome; assay: Inhibitory effect of 20-HETE synthase originated from rat kidney microsome; format: biochemical; conditions: rat kidney microsome; for Inhibition rate (1 μM): 20-HETE production without compound set to 100%
Experimental: Experimental Example [Inhibitory effect of 20-HETE synthase originated from rat kidney microsome]
Regarding the compounds listed in Table 1, their inhibitory activity to production of 20-HETE was examined.
The subject compound for this examination was added to a buffer comprising 50 mM of 3-morpholinopropane sulfonic acid (pH7.4), 5 mM of magnesium chloride and 1 mM of ethylenediaminetetraacetic acid (EDTA) disodium salt.
After that, the rat kidney microsome (microsome fraction prepared from the kidney of a spontaneous hypertension rat (male, 6 weeks of age)) as an enzyme, [5,6,8,9,11,12,14,15] tritium-arachidonic acid (supplied by Amasham) as a substrate, and NADPH (supplied by Sigma) as a coenzyme were added and reacted for 1.5 hours at 37° C.
After the reaction, formic acid was added to stop the reaction, and then acetonitrile (final concentration of 50%) was added and left for 1.5 hours at room temperature.
The activity of 20-HETE synthase was measured by using a high performance liquid chromatograph having a detector for radioactive substances (supplied by Gilson), and equipped with a C18 reversed phase column (Biocyl C18, supplied by Bio-rad).

[2] = 1 μM of the subject compound added
[3] = concentration at which production of 20-HETE was inhibited to 50%
[4] = concentration at which 20-HETE production was inhibited to 50%

| melting point | IC50 [1, 3] | IC50 [1, 4] | Structure (SMILES) | Inhibition rate (1 μM) [1, 2] | Inhibition rate (1 μM) ([1]; 1 μM of subject compound) |
| --- | --- | --- | --- | --- | --- |
| 122.5 to 124 °C | – | – | O/N=C/Nc1cc(C(F)(F)F)cc(C(F)(F)F)c1 [Comp. 49] | 46.7 | – |
| 155.5 to 156.5 °C | 25.5 nM | – | O/N=C/Nc1ccc(F)cc1F [Comp. 50] | – | – |
| 157 to 158 °C | 21.8 nM | – | Cc1cc(N/C=N/O)ccc1Br [Comp. 51] | 50.2 | – |
| 130.5 to 132 °C | – | – | Cc1ccc(N/C=N/O)cc1I [Comp. 55] | 31.3 | – |
| 144 to 145.5 °C | – | – | CCc1cc(C#N)ccc1N/C=N/O [Comp. 56] | 50.6 | – |
| 146.5 to 148 °C | 7.1 nM | – | CC(C)c1ccc(N/C=N/O)c(Br)c1 [Comp. 58] | 99.9 | – |
| 168 to 169 °C | – | – | Cc1cc(C)c(N/C=N/O)c(C)c1 [Comp. 72] | 99.2 | – |
| 133.5 to 134.5 °C | – | – | O/N=C/Nc1cccc(Br)c1 [Comp. 82] | 70.9 | – |
| 166.5 to 167 °C | – | – | O/N=C/Nc1c(Cl)cc(Cl)cc1Cl [Comp. 121] | 72.0 | – |
| 106 to 107.5 °C | 28.9 nM | – | CCOC(=O)Cc1ccc(N/C=N/O)cc1 [Comp. 122] | 94.7 | – |
| 100 to 102 °C | 354 nM | – | O/N=C/Nc1cccc(Oc2ccccc2)c1 [Comp. 124] | 92.2 | – |
| 138 to 139.5 °C (dec.) | – | – | COc1cccc(C(F)(F)F)c1N/C=N/O [Comp. 125] | 67.6 | – |
| 172.5 to 173 °C (dec.) | – | – | O=[N+]([O-])c1cc(F)ccc1N/C=N/O [Comp. 126] | 34.9 | – |
| 143 to 145 °C | 7 nM | – | O/N=C/Nc1ccc(Oc2ccc(Cl)cc2)cc1 [Comp. 128] | 102.0 | – |
| 155 to 156 °C | 6.9 nM | – | Cc1ccc(Oc2ccc(N/C=N/O)cc2)cc1 [Comp. 130] | 116.5 | – |
| 144 to 145.5 °C | 26 nM | – | O/N=C/Nc1ccc(Oc2ccccc2)cc1 [Comp. 131] | 89.2 | – |
| 156 to 157 °C | 13.4 nM | – | Cc1ccc(N/C=N/O)cc1F [Comp. 161] | 88.6 | – |
| 121 to 122.5 °C | 9 nM | – | Cc1cc(N/C=N/O)ccc1C(C)C [Comp. 178] | 91.4 | – |
| 138 to 140 °C | – | 11.6 nM | OCCc1ccc(N/C=N/O)cc1 [Comp. 207] | – | 90.7 |
| 169.5 to 170 °C | – | 152 nM | OCc1ccc(N/C=N/O)cc1 [Comp. 209] | – | 102.2 |

| melting point | IC50 [1, 3] | IC50 [1, 4] | Structure (SMILES) | Inhibition rate (1 μM) [1, 2] | Inhibition rate (1 μM) ([1]; 1 μM of subject compound) |
| --- | --- | --- | --- | --- | --- |
| 139 to 141 °C | – | 39.7 nM | C#CCOc1ccc(N/C=N/O)cc1 [Comp. 227] | – | 117.8 |
| 194 to 195 °C | – | 16 nM | N#Cc1ccc(-c2ccc(N/C=N/O)cc2)cc1 [Comp. 229] | – | 99.3 |
| 168.5 to 169 °C | – | 196 nM | O/N=C/Nc1cccc2c1CCCC2 [Comp. 231] | – | 92.9 |
| 154 to 155 °C | – | 6.6 nM | CCCC(=O)c1ccc(N/C=N/O)c(C)c1 [Comp. 232] | – | 86.0 |
| 111 to 113 °C | – | – | O/N=C/Nc1ccccc1-c1ccccc1 [Comp. 234] | – | 74.1 |
| 167.5 to 168 °C | – | 5920 nM | O/N=C/Nc1ccc(Br)c2ccccc12 [Comp. 235] | – | 77.8 |
| 197.5 to 198 °C | – | 26.2 nM | O/N=C/Nc1ccc(/C=C/c2ccccc2)cc1 [Comp. 237] | – | 96.6 |
| 142.5 to 144 °C | – | 30 nM | O/N=C/Nc1ccc2c(c1)CCC2 [Comp. 238] | – | 101.6 |
| 182.5 to 183 °C | – | 4080 nM | O=C(c1ccccc1)c1ccc(N/C=N/O)cc1 [Comp. 239] | – | – |
| 165 to 167 °C | – | 96.8 nM | O/N=C/Nc1ccc(-n2ccc(C(F)(F)F)n2)cc1 [Comp. 273] | – | 89.2 |
| 207 to 207.5 °C | – | 55.9 nM | Cc1cc(NC(=O)c2ccccc2)c(Cl)cc1N/C=N/O [Comp. 276] | – | 71.8 |
| 162 to 162.5 °C | – | 4.9 nM | O/N=C/Nc1ccc(N2CCCCC2)cc1 [Comp. 294] | – | 103.2 |
| 182 to 182.5 °C | – | 5.7 nM | O/N=C/Nc1ccc(N2CCOCC2)cc1 [Comp. 300] | – | 96.3 |
| 144 to 146 °C | – | 24 nM | CC(C)Oc1ccc(N/C=N/O)cc1 [Comp. 316] | – | 97.9 |
| 126 to 137.5 °C | – | 3.8 nM | CCCCCOc1ccc(N/C=N/O)cc1 [Comp. 319] | – | 99.9 |
| 125 to 126 °C | – | 1.3 nM | CCCCCCOc1ccc(N/C=N/O)cc1 [Comp. 320] | – | 92.5 |
| 121 to 122.5 °C | – | 3.7 nM | CCCCCCCOc1ccc(N/C=N/O)cc1 [Comp. 321] | – | 99.9 |
| 128 to 130 °C | – | 25.9 nM | CCCCCCCCCOc1ccc(N/C=N/O)cc1 [Comp. 323] | – | – |
| 148.5 to 149.5 °C | – | 3.7 nM | CC(C)(C)COc1ccc(N/C=N/O)cc1 [Comp. 324] | – | 99 |
| 123 to 125 °C | – | 2.6 nM | CC(C)(C)CCOc1ccc(N/C=N/O)cc1 [Comp. 325] | – | 106 |

| melting point | IC50 [1, 3] | IC50 [1, 4] | Structure (SMILES) | Inhibition rate (1 μM) [1, 2] | Inhibition rate (1 μM) ([1]; 1 μM of subject compound) |
| --- | --- | --- | --- | --- | --- |
| 127 to 128 °C | – | 0.7 nM | C=CCCCOc1ccc(N/C=N/O)cc1 [Comp. 329] | – | 121.1 |
| 122 to 124 °C | – | 2.4 nM | C=CCCOc1ccc(N/C=N/O)cc1 [Comp. 330] | – | 118.8 |
| 139 to 139.5 °C | – | 3.2 nM | C#CCCCOc1ccc(N/C=N/O)cc1 [Comp. 331] | – | 118.8 |
| 169.5 to 170 °C | – | 2.1 nM | C/C=C/C=C/COc1ccc(N/C=N/O)cc1 [Comp. 332] | – | 110.6 |
| 171.5 to 172 °C | – | 2.2 nM | CC#CCOc1ccc(N/C=N/O)cc1 [Comp. 333] | – | 119.3 |
| 125 to 126 °C | – | 3.2 nM | CC(C)=CCOc1ccc(N/C=N/O)cc1 [Comp. 334] | – | 105 |
| 139 to 141 °C | – | 1.4 nM | C#CCCOc1ccc(N/C=N/O)cc1 [Comp. 335] | – | 110 |
| 142.5 to 146 °C | – | 3.2 nM | C/C=C/COc1ccc(N/C=N/O)cc1 [Comp. 336] | – | 117.6 |
| 135 to 136.5 °C | – | 2.1 nM | CC#CCCOc1ccc(N/C=N/O)cc1 [Comp. 337] | – | 119.4 |
| 100 to 102 °C | – | 0.9 nM | CC/C=C/COc1ccc(N/C=N/O)cc1 [Comp. 338] | – | 119.8 |
| 113.5 to 114.5 °C | – | 124 nM | O/N=C/Nc1ccc(OCCN2CCCC2)cc1 [Comp. 339] | – | 88 |
| 157.5 to 158 °C | – | 3 nM | O/N=C/Nc1ccc(OCC2COCO2)cc1 (stereo not drawn) [Comp. 340] | – | 97.4 |
| 129.5 to 133 °C | – | 1.2 nM | O/N=C/Nc1ccc(OCCC2CCCCC2)cc1 [Comp. 341] | – | 104 |
| 174.5 to 175.5 °C | – | 5.3 nM | O/N=C/Nc1ccc(OCc2ccc3ccccc3n2)cc1 [Comp. 342] | – | 98.5 |
| 166.5 to 167 °C | – | 3.3 nM | O/N=C/Nc1ccc(OCc2ccccc2)cc1 [Comp. 343] | – | 84.5 |
| 180 to 180.5 °C | – | 37.5 nM | O/N=C/Nc1ccc(OCc2ccncc2)cc1 [Comp. 344] | – | 107 |
| 159.5 to 161 °C | – | 37.5 nM | O/N=C/Nc1ccc(OCc2ccccn2)cc1 [Comp. 345, N-[4-(pyridin-2-ylmethoxy)phenyl]-N′-hydroxyformamidine] | – | 107 |
| 104 to 107 °C | – | 8.9 nM | COCCOc1ccc(N/C=N/O)cc1 [Comp. 346] | – | 106.2 |
| 80.5 to 81.5 °C | – | 3.7 nM | COCCOCCOc1ccc(N/C=N/O)cc1 [Comp. 347] | – | 105 |
| 128.5 to 129.5 °C | – | 3.4 nM | CC1(C)OCC(COc2ccc(N/C=N/O)cc2)O1 (stereo not drawn) [Comp. 348] | – | 103 |
